Paper PMC3869945, “Synthetic 1,4-Pyran Naphthoquinones Are Potent Inhibitors of Dengue Virus Replication” (PLoS ONE, 2013)

Legend:
[1] = target: T1, DENV-2 NS3 (full-length, NS3FL) ATPase activity (Dengue virus type 2, UniProt P14340); assay: Colorimetric NTPase (ATPase) assay with purified full-length NS3; assay type: biochemical; settings: for NS3 ATPase inhibition, statistical difference from control (unpaired t-test, p < 0.05): screening in duplicate; for IC50: compound ≤ 100 μM
T1 construct: The fragment corresponding to amino acids 1 to 619 of NS3FL was amplified; 10xHis (N, cleaved yes); ubiquitin (N, cleaved yes); made in house; host or cells: E. coli Rosetta (λDE3)
Procedure: The ATPase activity of NS3 was determined by measuring the extension of hydrolysis of NTP to NDP and Pi. The amount of free inorganic phosphate released was calculated by the hydrolysis of ATP using a standard curve with known Pi concentrations, and the reaction was measured at 660 nm using SpectraMax M5 spectrophotometer (Molecular Devices). Compounds were diluted from 20 mM or 40 mM stock solution prepared in 100% DMSO. These compounds were diluted to a final concentration of 10% DMSO in the assay buffer. The compound screening assay was performed in 96-well plate, and in each well reaction containing 600 nM NS3FL, 40 mM Tris-HCl (pH 7.5), 5 mM MgCl2, 5 mM DTT, 0.1M KCl were pre-incubated with 50µM of compounds (or varying concentrations of the compound) for 10 min at 30 °C. The kinetic activity was initiated by the addition of 1 mM of ATP substrate and incubation for 10 min at 30°C. Reactions were stopped with addition of 20 μL 50% TCA, followed by 80 μL of ammonium molibidate solution and 40 μL of reducing agent. Absorbance was read and data were processed on Sigma Plot Version 10.0. The initial reaction velocities (Vi) of product formation were determined from progress curves using the linear regression method and data converted to residual activity and/or calculate IC50% assuming Michelis-Mentem kinetics. The experiments were carried out in duplicate and the statistical difference between the inhibition reaction in the presence of each compound and the control were evaluated by unpaired t-test analysis.
Once the ATPase activity was confirmed after purification process, we used the colorimetric assay developed by Fiske and Subbarow for the screening of compounds, which was performed using 600 nM of NS3FL in reactions containing 40 mM Tris-HCl (pH 7.5), 5 mM DTT, 100 mM KCl, 5 mM MgCl2, and 1 mM ATP and 50 µM of the pyran naphthoquinones 8, 9 and 10. […] The percentage of NS3FL ATPase activity inhibition varied from 15 to 50% of the untreated control.

Vero cells = assay: Cytotoxicity assay, neutral red staining (confirmed with CellTiter Blue); assay type: cell-based, African Green Monkey; settings: for Viability of uninfected host cell cultures: up to 100 µM, 72 h, neutral red
Procedure: Cell toxicity of all compounds used in this work was tested in Vero and HepG2 cells by Neutral Red dye exclusion assay. Briefly, cells were cultured with varying concentrations of each compound and incubated for 72 hours at 37°C. After this period, the cells were incubated with 0.05% neutral red solution for 3 hours, washed with 1X PBS and fixed with 20% paraformaldehyde for 5 min. Cells were washed again and the incorporated dye was extracted with a 50% methanol and 1% acetic acid solution for 20 min. Plates were read at 490nm in a ELISA reader. Results obtained with the neutral red dye exclusion assay were confirmed using the CellTiter Blue Cell Viability Kit (Promega, Madison - USA) according to manufacturer’s instructions.
The compounds were initially screened regarding their toxicity level after culturing Vero and HepG2 cells with the effective concentration of each compound. After 72h, cellular viability was analyzed by neutral red staining and confirmed by the conversion of redox resazurin into fluorescent resorufin.

DENV-2 [2] = assay: Virus replication inhibition assay in Vero cells, cell-free viral RNA by qPCR; assay type: cell-based; settings: for % of Inhibition of DENV-2 Replication (qPCR): DENV-2 infected Vero cells, m.o.i 0.1, 72 h, highest non-toxic concentration (μM, in parentheses after label): 8d 25, 9b and 9c 100, 10a and 10b 12.5, Ribavirin 200; for IC50: qPCR, 100 to 0.4 μM dose response, Hill regression; for Inhibition of DENV-2 replication (in words): highest non-toxic concentration
Procedure: In order to test the anti-viral effect of the compounds used in this work, monolayers of Vero cells were inoculated with DENV-2 at an m.o.i of 0.1 for 2 hours. After this period, cells were washed with 1X PBS to remove unbound viruses and fresh media was added with the highest non-cytotoxic concentration of the compounds. Infected cells were also cultured with culture medium or 1% DMSO, as negative controls, or with 200μM of Ribavirin® as reference drug for DENV replication inhibition. After 72 h, culture supernatants were collected and viral RNA was extracted using the QIAamp Viral RNA Mini Kit (Qiagen – Hamburg, Germany), according to manufacturer’s instructions. The synthesis of cDNA was performed with random hexamers as primers and the High Capacity cDNA kit (LifeTechnologies – Carlsbad, USA) according to manufacturer’s instructions. The detection and quantification of the cell free viral genomic RNA was performed by qPCR using specific primers and probe hybridizing in the protein E gene region as already described. qPCR conditions were as follow: a reaction mixture consisting of 12.5μL of TaqMan (Invitrogen – Carlsbad, USA), 50 pmol of each primer, 9 pmol of the probe and 7μL of the cDNA reaction to a final volume of 25μL was submitted to 40 cycles of amplification in a ABI PRISM 7000 Detection System (LifeTechnologies – Carlsbad, USA) using 60°C annealing temperature. Amplification results were analyzed using the 7000 SDS software (LifeTechnologies – Carlsbad, USA) and the threshold parameter was manually adjusted.
The efficiency of the qPCR was calculated based on the slope of a Ct versus Template Concentration curve. To generate the calibration curve, a purified stock of DENV-2 containing 10^5 Plaque forming unities/ml was serially diluted and used to RNA extraction followed by cDNA synthesis, which was in turn used as template for the qPCR. A value of -3.30 was achieved, which represents an efficiency close to 100%. Based on this efficiency for the qPCR, the percentage of inhibition of DENV replication was calculated by the ΔΔCT method.
A dose response curve was also performed with the compounds that inhibited DENV replication by at least 30%. For this purpose, DENV-2-infected Vero cells were cultured with the selected compounds at concentrations varying from 100 to 0.4 μM and virus replication was measured by qPCR as above. IC50 values were obtained by the Hill’s regression curve using the software Prism 5. Experiments were always performed in triplicates. All results were confirmed in HepG2 cells by qPCR and by TCID50 in Vero cells.

[3] = target: T2, DENV-2 NS3 protease domain linked to the NS2B cofactor (Dengue virus type 2, UniProt P14340); assay: NS3 protease inhibition assay with NS2B cofactor; assay type: biochemical; settings: in the presence of the NS2b cofactor, data not shown
T2 construct: the NS3 protease domain linked to the NS2B cofactor was purified; made in house
Procedure: We also evaluated whether the compounds were able to suppress the proteolytic activity of DENV-2 NS3. Several studies have shown that the NS2B cofactor is required by the protease domain to form a proteolytic active domain [47, 48]. Therefore, the NS3 protease domain linked to the NS2B cofactor was purified and the inhibition assay was performed as described by Leung and co-workers.

DENV-2 [4] = assay: Tissue Culture Infectious Dose (TCID50) confirmation of replication inhibition in Vero cells; assay type: cell-based; settings: DENV-2 infected Vero cells
Procedure: Viruses used in this work include a DENV-2 prototype 16681 and a Brazilian isolate (44/02 - from Fundação Oswaldo Cruz – RJ - Brazil). Virus stocks were generated by infecting Vero cells at an 80% confluence with a multiplicity of infection (m.o.i) of 0.1. Infected cells were incubated at 37 °C for 5-7 days and inspected every day until the cytopathic effect was clearly observed. Supernatants were then collected, centrifuged at 1,200 x g for 10 min. to clear cellular debris and stored at -70°C until use. The titter of viral stocks was measured by TCID(50)% using serial dilutions of 10^1 to 10^7 of the viral stocks inoculated into Vero cells. The viral titter was calculated according with Reed and Munch.
A dose response curve was also performed with the compounds that inhibited DENV replication by at least 30%. For this purpose, DENV-2-infected Vero cells were cultured with the selected compounds at concentrations varying from 100 to 0.4 μM and virus replication was measured by qPCR as above. […]
To analyze the impact of the selected compounds on DENV replication, cells were infected and cultured with the highest non-toxic concentration of each compound and virus replication was analyzed by qRT-PCR. […] The differences in the percentage of inhibition when viral replication was measured by qRT-PCR and TCID50 were probably due to the differences in the sensibility of these assays. […]

T1 sequence (P14340 1476-2093): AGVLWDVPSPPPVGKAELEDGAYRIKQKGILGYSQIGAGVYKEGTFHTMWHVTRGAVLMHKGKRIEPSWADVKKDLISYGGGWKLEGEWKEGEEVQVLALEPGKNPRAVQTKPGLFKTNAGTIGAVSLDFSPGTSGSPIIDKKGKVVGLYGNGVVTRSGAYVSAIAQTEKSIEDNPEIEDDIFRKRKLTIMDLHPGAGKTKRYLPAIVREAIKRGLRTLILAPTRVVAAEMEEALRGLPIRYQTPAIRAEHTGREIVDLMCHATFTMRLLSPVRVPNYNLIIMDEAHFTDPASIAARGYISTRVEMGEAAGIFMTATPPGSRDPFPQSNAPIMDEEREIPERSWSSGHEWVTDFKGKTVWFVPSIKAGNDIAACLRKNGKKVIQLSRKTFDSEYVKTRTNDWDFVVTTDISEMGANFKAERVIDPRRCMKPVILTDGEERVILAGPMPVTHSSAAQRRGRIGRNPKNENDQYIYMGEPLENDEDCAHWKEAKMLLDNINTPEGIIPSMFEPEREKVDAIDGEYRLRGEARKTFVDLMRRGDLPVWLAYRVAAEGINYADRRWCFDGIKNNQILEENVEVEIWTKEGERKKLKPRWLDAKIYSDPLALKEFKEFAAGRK
T2 sequence (P14340 1476-1653): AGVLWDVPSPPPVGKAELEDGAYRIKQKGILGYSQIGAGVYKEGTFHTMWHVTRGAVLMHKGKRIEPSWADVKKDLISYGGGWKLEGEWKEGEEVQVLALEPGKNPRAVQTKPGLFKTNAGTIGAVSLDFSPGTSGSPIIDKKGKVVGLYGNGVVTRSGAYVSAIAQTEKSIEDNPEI
T2 sequence (P14340 1398-1437): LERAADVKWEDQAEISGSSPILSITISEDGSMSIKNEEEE

Cc1ccc(C2CC(c3cccs3)C3=C(O2)c2ccccc2C(=O)C3=O)cc1 (stereo not drawn) [8c]
Reduction of the NS3 ATPase activity ([1]; 50 µM compound, 600 nM NS3FL, 1 mM ATP): two-fold reduction | NS3 ATPase inhibition, statistical difference from control (unpaired t-test, p < 0.05) ([1]; 50 µM compound): statistically different | Toxicity to the cell culture (Vero cells; concentration as low as 0.4 μM): highly toxic

O=C1C2=C(C(=O)c3ccccc31)C(c1ccccc1)C1=C(O2)C(=O)c2ccccc2C1=O [10a]
% of Inhibition of DENV-2 Replication (qPCR) (DENV-2 [2]): 0% | NS3 ATPase inhibition, statistical difference from control (unpaired t-test, p < 0.05) ([1]; 50 µM compound): statistically different

Cc1ccc(C2CC(c3ccc([N+](=O)[O-])cc3)C3=C(O2)C(=O)c2ccccc2C3=O)cc1 (stereo not drawn) [9b]
Effect against the NS3 protease activity [3]: did not observe any effect | % of Inhibition of DENV-2 Replication (qPCR) (DENV-2 [2]): 99.0% | IC50 (DENV-2 [2]; Vero cells): 1640 nM | inhibition at 100 µM (DENV-2 [4]; Dengue virus, DENV2, Vero): 99.8% | IC50 ([1]; 600 nM NS3FL, 1 mM ATP): > 100000 nM | Viability of uninfected host cell cultures (Vero cells): did not reduce the viability

O=C1C2=C(C(=O)c3ccccc31)C(c1ccc([N+](=O)[O-])cc1)C1=C(O2)C(=O)c2ccccc2C1=O [10b]
% of Inhibition of DENV-2 Replication (qPCR) (DENV-2 [2]): 0% | Inhibition of DENV-2 replication (in words) (DENV-2 [2]; Vero cells): did not inhibit DENV-2 replication | NS3 ATPase inhibition, statistical difference from control (unpaired t-test, p < 0.05) ([1]; 50 µM compound): statistically different

Cc1ccc(C2CC(c3ccc([N+](=O)[O-])cc3)C3=C(O2)c2ccccc2C(=O)C3=O)cc1 (stereo not drawn) [8b]
NS3 ATPase inhibition, statistical difference from control (unpaired t-test, p < 0.05) ([1]; 50 µM compound): statistically different

Cc1ccc(C2CC(c3ccc([N+](=O)[O-])cc3)C3=C(O2)C(=O)c2ccccc2C3=O)cc1 (stereo not drawn) [9c]
Effect against the NS3 protease activity [3]: did not observe any effect | % of Inhibition of DENV-2 Replication (qPCR) (DENV-2 [2]): 99.6% | IC50 of 9c fold lower than that of compound 9b (DENV-2 [2]; DENV-2 replication in Vero cells): 5.3 fold | Concentration to inhibit 50% of DENV replication, fold lower than aglycon analogue of teicoplanin (DENV-2 [2]; Vero cells): 20 fold | IC50 (DENV-2 [2]; Vero cells): 311 nM | % of Inhibition of DENV-2 Replication (TCID50) (DENV-2 [4]; 100 μM): 99.99% | IC50 ([1]; 600 nM NS3FL, 1 mM ATP): 80000 ± 12000 nM | NS3 ATPase inhibition, statistical difference from control (unpaired t-test, p < 0.05) ([1]; 50 µM compound): statistically different | Viability of uninfected host cell cultures (Vero cells): did not reduce the viability

NC(=O)c1ncn([C@@H]2O[C@H](CO)[C@@H](O)[C@H]2O)n1 [Ribavirin, reference compound]
% of Inhibition of DENV-2 Replication (qPCR) (DENV-2 [2]): 78.00%

Cc1ccc(C2CC(c3ccccc3)C3=C(O2)c2ccccc2C(=O)C3=O)cc1 (stereo not drawn) [8d]
% of Inhibition of DENV-2 Replication (qPCR) (DENV-2 [2]): 0% | Inhibition of DENV-2 replication (in words) (DENV-2 [2]; Vero cells): did not inhibit DENV-2 replication
